Experimental data from publication PMC10985906, “Anticholinesterase activities of novel isoindolin-1,3-dione-based acetohydrazide derivatives: design, synthesis, biological evaluation, molecular dynamic study” (BMC Chemistry, 2024).
Read-outs that look alike come from different tables or passages of the source.

What was measured:
AChE [1] = target: T1, AChE (Homo sapiens, UniProt P22303); experiment: biochemical; details: mean ± SD; modified Ellman, 37 °C, pH 7.4
BChE [2] = target: T2, BChE (Homo sapiens, UniProt P06276); experiment: biochemical; details: mean ± SD; modified Ellman, 37 °C, pH 7.4
T2 sequence (P06276 29-602): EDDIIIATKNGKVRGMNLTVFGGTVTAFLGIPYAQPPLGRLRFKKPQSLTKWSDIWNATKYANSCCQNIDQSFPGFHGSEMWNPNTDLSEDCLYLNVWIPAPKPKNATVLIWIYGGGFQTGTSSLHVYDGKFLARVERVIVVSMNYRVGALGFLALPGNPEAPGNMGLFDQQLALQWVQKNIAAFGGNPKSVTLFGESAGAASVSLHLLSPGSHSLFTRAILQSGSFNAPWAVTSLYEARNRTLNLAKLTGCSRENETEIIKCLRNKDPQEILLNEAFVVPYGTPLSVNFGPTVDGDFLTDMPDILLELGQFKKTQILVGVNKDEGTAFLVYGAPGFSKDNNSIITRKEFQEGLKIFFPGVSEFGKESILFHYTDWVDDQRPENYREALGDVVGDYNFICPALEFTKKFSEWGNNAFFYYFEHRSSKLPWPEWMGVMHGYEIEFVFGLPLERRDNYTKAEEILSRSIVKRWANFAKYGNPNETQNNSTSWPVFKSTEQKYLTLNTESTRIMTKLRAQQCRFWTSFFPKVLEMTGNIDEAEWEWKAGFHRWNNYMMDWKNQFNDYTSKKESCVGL

BChE [3] = target: T2, BChE; experiment: Enzyme kinetics against BChE (Lineweaver–Burk); assay type: biochemical
Description: (§1) The ChE inhibition reactions were determined by Ellman’s assay at different concentrations of 8a and 8g. […]. The inhibition constant Ki was calculated by the plot of slopes versus the corresponding concentrations of the inhibitors.

Aß-aggregation = details: at 10 µM; previously reported; cited from earlier work
hBACE-1 = details: at 50 µM; previously reported; cited from earlier work
BChE [4] = target: T2, BChE; details: at 10 µM; previously reported; cited from earlier work
BChE [5] = target: T2, BChE; details: previously reported; cited from earlier work
AChE [6] = target: T1, AChE; experiment: Enzyme kinetics against AChE (Lineweaver–Burk); assay type: biochemical
Description: as §1

[7] = secondary plot of Lineweaver–Burk plots

T1 sequence (P22303 32-614): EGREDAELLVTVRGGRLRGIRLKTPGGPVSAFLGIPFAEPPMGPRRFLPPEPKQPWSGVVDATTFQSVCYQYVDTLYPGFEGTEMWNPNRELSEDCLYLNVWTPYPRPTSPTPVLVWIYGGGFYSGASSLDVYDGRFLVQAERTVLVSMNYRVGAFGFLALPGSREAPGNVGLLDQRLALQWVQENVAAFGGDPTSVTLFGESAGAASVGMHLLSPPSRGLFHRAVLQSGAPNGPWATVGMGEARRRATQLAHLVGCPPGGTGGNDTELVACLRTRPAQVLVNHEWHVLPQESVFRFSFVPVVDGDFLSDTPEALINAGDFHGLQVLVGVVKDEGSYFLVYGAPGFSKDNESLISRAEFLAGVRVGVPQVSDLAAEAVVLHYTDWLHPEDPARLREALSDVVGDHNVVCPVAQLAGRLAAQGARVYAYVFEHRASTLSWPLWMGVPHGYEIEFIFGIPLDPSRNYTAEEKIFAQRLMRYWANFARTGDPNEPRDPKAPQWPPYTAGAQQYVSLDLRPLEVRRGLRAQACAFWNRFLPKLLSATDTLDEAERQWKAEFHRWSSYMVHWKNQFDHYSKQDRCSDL

Molecule	IC50 (AChE [1])	IC50 (BChE [2])	further results
CCN(CC(=O)NN=Cc1ccccc1OCCCN1C(=O)c2ccccc2C1=O)Cc1ccccc1 [Compound 8b, 2-(benzyl(ethyl)amino)-Nʹ-(2-(3-(1,3-dioxoisoindolin-2-yl)propoxy)benzylidene)acetohydrazide]	180 ± 10 nM	26800 ± 800 nM	
CCN(CC(=O)NN=Cc1ccc(OCCCN2C(=O)c3ccccc3C2=O)cc1)Cc1ccccc1 [Compound 8g, 2-(benzyl(ethyl)amino)-Nʹ-(4-(3-(1,3-dioxoisoindolin-2-yl)propoxy)benzylidene)acetohydrazide]	860 ± 20 nM	5700 ± 200 nM	mode of inhibition against BChE (BChE [3]; Lineweaver–Burk plot): competitive; Ki (BChE [3]; [7]): 3650 nM
Oc1ccc(/C=C/c2cc(O)cc(O)c2)cc1 [resveratrol]			Aß-aggregation inhibition (Aß-aggregation): 78.5% ± 5.2
2-(benzylamino-2-hydroxyalkyl)isoindoline-1,3-dione			hBACE-1 inhibition (hBACE-1): 43.7%; Aß-aggregation inhibition (Aß-aggregation): 24.9%; BChE inhibition (BChE [4]): 14.1% ± 5.8
CN(C)C(=O)Oc1cccc([N+](C)(C)C)c1 [neostigmine]			IC50 (BChE [5]): 84 nM
CCN(CC(=O)NN=Cc1cccc(OCCCN2C(=O)c3ccccc3C2=O)c1)Cc1ccccc1 [Compound 8d, 2-(benzyl(ethyl)amino)-N'-(3-(3-(1,3-dioxoisoindolin-2-yl)propoxy)benzylidene)acetohydrazide]	160 ± 30 nM	11800 ± 500 nM	
CCN(CC(=O)NN=Cc1ccc(OC)c(OCCCN2C(=O)c3ccccc3C2=O)c1)Cc1ccccc1 [Compound 8e, 2-(benzyl(ethyl)amino)-Nʹ-(3-(3-(1,3-dioxoisoindolin-2-yl)propoxy)-4-methoxybenzylidene)acetohydrazide]	210 ± 30 nM	14700 ± 200 nM	
CN(CC(=O)NN=Cc1ccc(OCCCN2C(=O)c3ccccc3C2=O)cc1)Cc1ccccc1 [Compound 8f, 2-(benzyl(methyl)amino)-Nʹ-(4-(3-(1,3-dioxoisoindolin-2-yl)propoxy)benzylidene)acetohydrazide]	320 ± 20 nM	15700 ± 1200 nM	
CN(CC(=O)NN=Cc1ccccc1OCCCN1C(=O)c2ccccc2C1=O)Cc1ccccc1 [Compound 8a, 2-(benzyl(methyl)amino)-Nʹ-(2-(3-(1,3-dioxoisoindolin-2-yl)propoxy)benzylidene)acetohydrazide]	110 ± 50 nM	30200 ± 2800 nM	mode of inhibition against AChE (AChE [6]; Lineweaver–Burk plot): competitive; Ki (AChE [6]; [7]): 88.6 nM
CCN(CC(=O)NN=Cc1cc([N+](=O)[O-])ccc1OCCCN1C(=O)c2ccccc2C1=O)Cc1ccccc1 [Compound 8c, 2-(benzyl(ethyl)amino)-Nʹ-(2-(3-(1,3-dioxoisoindolin-2-yl)propoxy)-5-nitrobenzylidene)acetohydrazide]	160 ± 40 nM	21800 ± 1300 nM	
CCN(CC(=O)NN=Cc1ccc(OCCCN2C(=O)c3ccccc3C2=O)c(OC)c1)Cc1ccccc1 [Compound 8h, 2-(benzyl(ethyl)amino)-Nʹ-(4-(3-(1,3-dioxoisoindolin-2-yl)propoxy)-3-methoxybenzylidene)acetohydrazide]	170 ± 60 nM	13200 ± 1400 nM	
